In article PMC8533986, “[^99mTc]Tc-DB15 in GRPR-Targeted Tumor Imaging with SPECT: From Preclinical Evaluation to the First Clinical Outcomes” (Cancers, 2021):

Experiments:
human GRPR = molecular target: T1, human GRPR (Homo sapiens, UniProt P30550); experiment: Competition binding assay, displacement of [125I]I-[Tyr4]BBN from PC-3 cell membranes; settings: PC-3 cell membrane homogenates, 1 h at 22 °C, pH 7.4, mean ± SD of three experiments in triplicate, read-out: IC50, binding affinity for the human GRPR
T1 construct: displacement of the [^125I]I-[Tyr^4]BBN radioligand from freshly harvested PC-3 cell membranes; host or cells: PC-3 human prostate adenocarcinoma cells (membrane homogenate)
Experimental: 2.4. Competition Binding Assays in PC-3 Cell-Membranes
Rapid filtration through glass fiber filters (Whatman GF/B, presoaked in binding buffer for at least 1 h) on a Brandel Cell Harvester (Adi Hassel Ingenieur Büro, Munich, Germany) and rinsing with ice-cold washing buffer (10 mM HEPES pH 7.4, 150 mM NaCl) followed. Filter radioactivity was measured in a gamma counter (automated multi-sample well-type instrument with a NaI(Tl) 3” crystal, Canberra Packard Cobra^TM Quantum U5003/1, Auto-Gamma® counting system). […] Values are expressed as mean ± standard deviation (SD) of three experiments performed in triplicate.

T-47D cells = experiment: Time-dependent uptake of [99mTc]Tc-DB15 in T-47D cells; format: cell-based, human
Experimental: (§1) 2.5. Time-Dependent Uptake of [^99mTc]Tc-DB15 in PC-3 and T-47D Cells
(§2) One day before the experiment, PC-3 or T-47D cells were seeded in 6-well plates (≈1 × 10^6 cells per well). Next day, the cells were rinsed with ice-cold internalization medium (IM, RPMI-1640 GlutaMAX-I, supplemented by 1% (v/v) FBS). […] [^99mTc]Tc-DB15 (250 fmol total peptide in 150 µL 0.5% BSA-PBS) was added in all wells and the plates were incubated at for 15 min, 30 min, 1 h and 2 h at 37 °C in an Incubator-Orbital Shaker unit (MPM Instr. SrI, Bernareggio, MI, Italy). Cells were then placed on ice, the medium was collected, and the plates were rinsed with 0.5% BSA-PBS (1 mL). Membrane-bound fractions were collected after treatment in acid-wash solution (2 × 600 µL; 50 mM glycine buffer pH 2.8, 0.1 M NaCl). Internalized fractions were collected after treatment with 1 N NaOH (2 × 600 µL), as previously described. After counting of radioactivity of all collected fractions in the gamma counter, the percentage of specific internalized and membrane-bound fractions per time point were calculated with Microsoft Excel and the respective curves were drawn. Specific internalized and membrane-bound counts were determined by subtracting the respective non-specific from the respective total counts. Results represent specific internalized ±SD of total added radioactivity per well from three experiments performed in triplicate.

BC patients = settings: two advanced BC patients, imaging 15 min-24 h pi
Experimental: Two BC patients were tested for the potential of pathological lesion detection after injection of [^99mTc]Tc-DB15.
A single dose of [^99mTc]Tc-DB15 (5-mL, 700–800 MBq corresponding to 20 μg DB15) was administered as a slow intravenous (iv) injection over 1 min. Vital signs (pulse rate, systolic and diastolic BP) were measured prior to the injection of [^99mTc]DB15 as well as within 15 min pi. Likewise, ECGs were performed prior to the injection, continuously during the injection and for 15 min pi. ECG and vital signs were measured again after the last scan was completed and blood tests for hematology and biochemistry (glucose, creatinine, bilirubin, transaminases, sodium, potassium, calcium) were performed. The laboratory evaluation was repeated 7, 14 and 28 days after imaging. Adverse events (AEs) were assessed and graded according to National Cancer Institute Common Toxicity Criteria for Adverse Events (CTCAE) Version 3.0.
Gamma camera imaging was performed on a Symbia Intevo Bold dual-head SPECT/CT scanner (Siemens Healthineers AG; Erlangen, Germany) equipped with a 16-slice CT scanner. Planar imaging of the whole body and SPECT/CT images of the thorax were obtained 15 min, 1 h, 3 h, and 24 h pi. Planar and SPECT/CT images were inspected for increased uptake by two experienced nuclear medicine specialists.

PC-3 cells = experiment: Time-dependent uptake of [99mTc]Tc-DB15 in PC-3 cells; format: cell-based, human
Experimental: as §1, §2

[1] = 30 min incubation, 37 °C, 250 fmol total peptide, mean ± SD, three experiments in triplicate
[2] = all time points (15 min-2 h), results not shown

T1 sequence (P30550 whole entry): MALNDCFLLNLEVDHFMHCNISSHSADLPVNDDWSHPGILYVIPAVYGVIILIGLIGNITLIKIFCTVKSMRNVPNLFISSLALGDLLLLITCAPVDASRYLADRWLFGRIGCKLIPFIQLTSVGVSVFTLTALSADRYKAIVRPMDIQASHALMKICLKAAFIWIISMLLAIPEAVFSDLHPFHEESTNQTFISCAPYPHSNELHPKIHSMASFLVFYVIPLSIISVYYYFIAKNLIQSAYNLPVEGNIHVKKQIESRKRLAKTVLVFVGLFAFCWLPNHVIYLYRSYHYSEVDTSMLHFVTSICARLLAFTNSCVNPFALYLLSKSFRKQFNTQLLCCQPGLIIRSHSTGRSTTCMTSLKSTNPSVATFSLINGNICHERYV

For `CCNC(=O)[C@H](CC(C)C)NC(=O)[C@H](Cc1c[nH]cn1)NC(=O)CN(C)C(=O)[C@@H](NC(=O)[C@H](C)NC(=O)[C@H](Cc1c[nH]c2ccccc12)NC(=O)[C@H](CCC(N)=O)NC(=O)[C@@H](Cc1ccccc1)NC(=O)COCC(=O)Nc1ccc(CNC(=O)C(CNCCN)CNCCN)cc1)C(C)C` [DB15, N4-AMA-DGA-DPhe^6,Sar^11,LeuNHEt^13]BBN(6-13)], the IC50 (human GRPR) was 0.37 ± 0.03 nM.
With “[^99mTc]Tc-N4-AMA-DGA-DPhe^6,Sar^11,LeuNHEt^13]BBN(6-13) [[^99mTc]Tc-DB15]” the “portion found within the cells (internalized)” value (T-47D cells; 37 °C) was < 6%, the “specific cell uptake (cell-associated fraction of total added activity)” value (T-47D cells; [1]) was 24.2 ± 0.7% and the “cell association in the presence of 1 μM [Tyr4]BBN” value (T-47D cells; [2]) was < 0.9%. The “Pathological findings on planar and SPECT/CT images” value (BC patients) was “increased uptake of [^99mTc]Tc-DB15 in the BC metastases in both patients”, the “portion found within the cells (internalized)” value (PC-3 cells; 37 °C) was < 6% and the “specific cell uptake (cell-associated fraction of total added activity)” value (PC-3 cells; [1]) was 13.1 ± 0.1%. For the same molecule, the “cell association in the presence of 1 μM [Tyr4]BBN” value (PC-3 cells; [2]) was < 0.9%.
